Data reported in US6956059B2, “Anti-inflammatory and immunomodulatory amino acid derivatives, their preparation and use” (Croda International, plc, priority 2001, dated 2005).

Test system: blood-brain barrier
Assay: transport across the blood-brain barrier (methodology of Dehouck et al); cytotoxicity observation
Format: cell-based
Conditions: used at the concentration of 5 μm/l; blood-brain barrier transport experiments
Procedure: In accordance with the methodology described by Dehouck et al in J Cont Rel 81-91 (1992), experiments were performed to study the transport of the compound of Example 2 across the blood-brain barrier.

With `CCCCCCCC/C=C\CCCCCCCCCCCCCC(=O)NCCCC[C@H](NC(=O)CCCCCCCCCCCCC/C=C\CCCCCCCC)C(=O)OCC` [Example 2, Nα,Nε-di-(z-15-tetracosenoyl)-L-lysine ethyl ester] the cytotoxicity was “not cytotoxic”.
